For one assay, the target named is human RORγt LBD (Homo sapiens (Human), UniProt P51449). The experiment in a line: RORγt reporter assay (GAL4-RORγt LBD luciferase in HEK293T cells). Type of assay: cell-based. To be noted: for RORγt reporter Assay, % inhibition @ 6 μM / IC50: HEK293T cells; for IC50: 24 hours compound treatment; for inhibition at 6 µM: HEK-293T, read-out: RORγt reporter Assay, % inhibition @ 6 μM, HEK293T cells, 6 μM. The gist of the method:
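HEK293T cells transiently co-transfected with GAL4-DBD–wild-type human RORγt LBD (pBIND) and GAL4-responsive firefly luciferase reporter (pGL4.31); renilla luciferase from pBIND normalises transfection/viability. Cells in phenol-red-free DMEM, 5% lipid-reduced FCS, treated with compound 24 h. Firefly/renilla ratio plotted against compound concentration.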
On the technique in general: Reporter assays use an easily measured gene product as a stand-in for the process of interest.

The target of assay [1] is human RORγt ligand binding domain (RORγt LBD) (Homo sapiens (Human), UniProt P51449). The experiment in a line: RORγt ThermoFluor assay (thermal shift binding affinity). Conditions: estimated from thermal shift. The gist of the method:
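Thermal shift used 0.065 mg/mL RORγt LBD with 60 μM 1,8-ANS in 100 mM Hepes pH 7.0, 10 mM NaCl, 2.5 mM GSH and 0.002% Tween-20, heated at 1 °C/min. Fluorescence was excited at 380–400 nm and emission read at 500 nm.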

In assay [2] the test system is IL-17 production by CD4 T cells. Description: Human Th17 assay (IL-17 production by CD4 T cells under Th17 differentiation). It counts as cell-based. To be noted: human CD4+ T cells, IL-17 after 3 days, read-out: Human Th17 Assay, IC50 μM. The gist of the method:
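Healthy-donor peripheral CD4+ T cells (1.5×10^5/well) preincubated 1 h with titrated compound (0.2% DMSO), then differentiated with anti-CD3/CD28 beads, anti-IL4, anti-IFNγ, IL1β, IL23, IL6, TGFβ and IL2 for 3 days at 37 °C. Supernatant IL-17 quantified by MSD electrochemiluminescence against a standard curve; IC50 fitted.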

Structures can show the parent of a compound that is named as a salt. Where two headings read alike, the source gives them in different places.

Chain of human RORγt ligand binding domain (RORγt LBD) (P51449 other isoform, or with tags, fused parts or gaps): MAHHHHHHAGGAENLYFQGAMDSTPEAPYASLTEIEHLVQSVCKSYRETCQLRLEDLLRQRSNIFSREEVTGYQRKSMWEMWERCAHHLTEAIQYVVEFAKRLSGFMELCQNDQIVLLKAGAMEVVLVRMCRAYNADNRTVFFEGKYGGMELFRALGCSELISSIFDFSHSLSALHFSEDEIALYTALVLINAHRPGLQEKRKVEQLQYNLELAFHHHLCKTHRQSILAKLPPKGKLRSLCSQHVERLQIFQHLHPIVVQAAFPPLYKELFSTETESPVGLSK
Chain of human RORγt LBD (P51449 258-518): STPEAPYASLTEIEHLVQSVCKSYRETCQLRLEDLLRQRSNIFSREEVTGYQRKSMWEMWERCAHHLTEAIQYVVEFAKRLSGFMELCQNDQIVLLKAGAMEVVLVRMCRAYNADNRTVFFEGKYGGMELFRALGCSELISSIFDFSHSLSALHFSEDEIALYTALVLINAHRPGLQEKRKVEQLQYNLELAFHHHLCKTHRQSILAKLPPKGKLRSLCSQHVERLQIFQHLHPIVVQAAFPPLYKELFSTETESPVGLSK

For orientation: IC50 means the concentration at which inhibition is half-maximal. Broadly, the Kd is the constant that tells how readily two partners part at equilibrium. Regarding `COc1nc2ccc(C(O)(c3ccc(C(F)(F)F)nc3)c3cncn3C)cc2c(Cl)c1Cc1ccc(C(F)(F)F)nc1` (single isomer, unassigned) [Example 94C, (4-Chloro-2-methoxy-3-((6-(trifluoromethyl)pyridin-3-yl)methyl)quinolin-6-yl)(1-methyl-1H-imidazol-5-yl)(6-(trifluoromethyl)pyridin-3-yl)methanol], on human RORγt LBD, the “RORγt reporter Assay, % inhibition @ 6 μM” value amounted to 95% and the IC50 was 0.16 µM. The Kd in assay [1] is 0.0065 µM. Further, the half-inhibitory concentration (IC50) in assay [2] was 0.048 µM.
A word on the inhibition: it is the change of the read-out against control, counted positive when it falls. In the case of `COc1nc2ccc(C(O)(c3ccc(C#N)cc3)c3cncn3C)cc2c(C#N)c1Cc1ccc(C(F)(F)F)cc1` (single isomer, unassigned) [Example 96B, 6-((4-cyanophenyl)(hydroxy)(1-methyl-1H-imidazol-5-yl)methyl)-2-methoxy-3-(4-(trifluoromethyl)benzyl)quinoline-4-carbonitrile], the values for the half-inhibitory concentration (IC50) (at human RORγt LBD; in assay [2]) were 0.16 µM and 0.05 µM, respectively. In addition, the inhibition at 6 µM on human RORγt LBD was 97%. For the same compound, in assay [1], the dissociation constant Kd was 0.048 µM.
Regarding `COc1nc2ccc(C(O)(c3ccc(C#N)cc3)c3cncn3C)cc2c(C#N)c1Cc1ccc(C(F)(F)F)cc1` (single isomer, unassigned) [Example 96C, 6-((4-cyanophenyl)(hydroxy)(1-methyl-1H-imidazol-5-yl)methyl)-2-methoxy-3-(4-(trifluoromethyl)benzyl)quinoline-4-carbonitrile], at human RORγt LBD, the “RORγt reporter Assay, % inhibition @ 6 μM” value worked out at 97% and the IC50 was determined as 0.018 µM. In addition, the Kd in assay [1] is 0.0022 µM. Moreover, the 50% inhibitory concentration (IC50) in assay [2] stood at 0.0045 µM.
`COc1nc2ccc(C(O)(c3cnnn3C)C3CN(C(C)=O)C3)cc2c(Cl)c1Cc1ccc(C(F)(F)F)cc1` (single isomer, unassigned) [Example 97B, 1-(3-((4-Chloro-2-methoxy-3-(4-(trifluoromethyl)benzyl)quinolin-6-yl)(hydroxy)(1-methyl-1H-1,2,3-triazol-5-yl)methyl)azetidin-1-yl)ethanone]: on human RORγt LBD, the IC50 stood at 0.0059 µM and the inhibition at 6 µM was determined as 98%. The equilibrium dissociation constant (Kd) in assay [1] was 0.0014 µM. The IC50 in assay [2] was 0.0034 µM.
On to `COc1nc2ccc(C(O)(c3cnnn3C)C3CN(C(C)=O)C3)cc2c(Cl)c1Cc1ccc(C(F)(F)F)cc1` (single isomer, unassigned) [Example 97C, 1-(3-((4-Chloro-2-methoxy-3-(4-(trifluoromethyl)benzyl)quinolin-6-yl)(hydroxy)(1-methyl-1H-1,2,3-triazol-5-yl)methyl)azetidin-1-yl)ethanone], for which the “RORγt reporter Assay, % inhibition @ 6 μM” value at human RORγt LBD was found to be 99%. The IC50 at human RORγt LBD was about 0.004 µM; in assay [2] it was 0.015 µM. Besides, the Kd in assay [1] was 0.00064 µM.
As for `Cn1cncc1C(O)(c1ccc(Cl)cc1)c1ccc2nc(Cl)c(Cc3ccccc3)c(Cl)c2c1` (stereo not drawn) [Example 1, (3-Benzyl-2,4-dichloroquinolin-6-yl)(4-chlorophenyl)(1-methyl-1H-imidazol-5-yl)methanol], at human RORγt LBD, half-maximal inhibition (IC50) required 0.35 µM and the inhibition at 6 µM was determined as 72%. Further, the equilibrium dissociation constant (Kd) in assay [1] is 0.018 µM. In addition, the IC50 in assay [2] (Homo sapiens, CD4+ T, 72 h) was determined as 0.59 µM.
The corresponding values for `OC(c1cccnc1)(c1cccc(Cl)c1)c1ccc2nc(Cl)c(Cc3ccc(-n4cccn4)cc3)c(Cl)c2c1` (stereo not drawn) [Example 5, (3-(4-(1H-Pyrazol-1-yl)benzyl)-2,4-dichloroquinolin-6-yl)(3-chlorophenyl)(pyridin-3-yl)methanol.TFA] are 0.057 µM, 117%, 0.011 µM and 0.066 µM.
The corresponding values for `CS(=O)(=O)c1ccc(Cc2c(Cl)nc3ccc(C(O)(c4cccnc4)c4cccc(Cl)c4)cc3c2Cl)cc1` (stereo not drawn) [Example 8, (3-Chlorophenyl)(2,4-dichloro-3-(4-(methylsulfonyl)benzyl)quinolin-6-yl)(pyridin-3-yl)methanol.TFA] are 0.068 µM, 103%, 0.043 µM and 0.079 µM.
Regarding `OC(c1cccnc1)(c1ccc2nc(Cl)c(Cc3ccc(Cl)cc3)c(Cl)c2c1)c1cncs1` (stereo not drawn) [Example 9, (2,4-Dichloro-3-(4-chlorobenzyl)quinolin-6-yl)(pyridin-3-yl)(thiazol-5-yl)methanol.TFA], at human RORγt LBD, inhibition was half-maximal at 0.0065 µM (IC50) and the inhibition at 6 µM turned out to be 85%. Further, the Kd in assay [1] was 0.00083 µM. Also, the IC50 in assay [2] (Homo sapiens, CD4+ T, 72 h) stood at 0.085 µM.
For the compound `Cn1cncc1C(O)(c1ccc(Cl)cc1)c1ccc2nc(Cl)c(Cc3ccc(-n4cccn4)cc3)c(Cl)c2c1` (stereo not drawn) [Example 11, (3-(4-(1H-Pyrazol-1-yl)benzyl)-2,4-dichloroquinolin-6-yl)(4-chlorophenyl)(1-methyl-1H-imidazol-5-yl)methanol.TFA], at human RORγt LBD, the IC50 was determined as 0.16 µM and the inhibition at 6 µM is 104%. Besides, the dissociation constant Kd in assay [1] was 0.075 µM. Also, the IC50 in assay [2] (Homo sapiens, CD4+ T, 72 h) worked out at 0.3 µM.
As to `CCOc1nc2ccc(C(O)(c3cncs3)c3cncn3C)cc2c(Cl)c1Cc1ccc(-n2cccn2)cc1` (stereo not drawn) [Example 16, (3-(4-(1H-Pyrazol-1-yl)benzyl)-4-chloro-2-ethoxyquinolin-6-yl)(1-methyl-1H-imidazol-5-yl)(thiazol-5-yl)methanol.TFA], at human RORγt LBD, the midpoint of inhibition, the IC50, lay at 0.038 µM and the inhibition at 6 µM came to 104%. Also, the Kd in assay [1] was 0.0066 µM. Besides, the IC50 in assay [2] (Homo sapiens, CD4+ T, 72 h) came out at 0.054 µM.
As for `CCN(C)c1nc2ccc(C(O)(c3ccc(Cl)cc3)c3cncn3C)cc2c(Cl)c1Cc1ccc(-n2cccn2)cc1` (stereo not drawn) [Example 17, (3-(4-(1H-Pyrazol-1-yl)benzyl)-4-chloro-2-(ethyl(methyl)amino)quinolin-6-yl)(4-chlorophenyl)(1-methyl-1H-imidazol-5-yl)methanol.TFA], at human RORγt LBD, the IC50 was determined as 0.38 µM and the inhibition at 6 µM worked out at 96%. In addition, in assay [1], the equilibrium dissociation constant (Kd) was 0.31 µM. The IC50 in assay [2] (Homo sapiens, CD4+ T, 72 h) came out at 1.2 µM.
Consider `COc1ccc(C(O)(c2ccc3nc(OC)c(Cc4ccc(-n5cccn5)cc4)c(Cl)c3c2)c2cncs2)cn1` (stereo not drawn) [Example 20A, (3-(4-(1H-Pyrazol-1-yl)benzyl)-4-chloro-2-methoxyquinolin-6-yl)(6-methoxypyridin-3-yl)(thiazol-5-yl)methanol], for which, on human RORγt LBD, the IC50 amounted to 0.026 µM and the inhibition at 6 µM amounted to 101%. In assay [1], the equilibrium dissociation constant (Kd) is 0.0038 µM. The IC50 in assay [2] (Homo sapiens, CD4+ T, 72 h) was found to be 0.015 µM.
The corresponding values for `COc1ccc(C(O)(c2ccc3nc(OC)c(Cc4ccc(-n5cccn5)cc4)c(Cl)c3c2)c2cncn2C)cn1` (stereo not drawn) [Example 22, (3-(4-(1H-Pyrazol-1-yl)benzyl)-4-chloro-2-methoxyquinolin-6-yl)(6-methoxypyridin-3-yl)(1-methyl-1H-imidazol-5-yl)methanol.TFA] are 0.091 µM, 96%, 0.0028 µM and 0.016 µM.
Taken in the same sequence, the figures for `Cn1cncc1C(O)(c1ccc(C(F)(F)F)nc1)c1ccc2nc(Cl)c(Cc3ccc(-n4cccn4)cc3)c(Cl)c2c1` (stereo not drawn) [Example 23, (3-(4-(1H-Pyrazol-1-yl)benzyl)-2,4-dichloroquinolin-6-yl)(1-methyl-1H-imidazol-5-yl)(6-(trifluoromethyl)pyridin-3-yl)methanol.TFA] were 0.014 µM, 95%, 0.004 µM and 0.15 µM.

The values are drawn from US9290476B2, “Methylene linked quinolinyl modulators of RORγt” (Janssen Pharmaceutica NV, priority 2012, dated 2016).
